Measurements published in US9833497B2, “Human originated EGF domain proteins and use of the same” (CHENGDU SOURCEBIO LIMITED-LIABILITY COMPANY, priority 2013, dated 2017).

Key:
Type in all cases: cell-based
E. coli DH5α = assay: Antibacterial activity: MIC and growth curve against E. coli DH5α in 96-well plate; details: minimal inhibitory concentration against E. coli DH5α; 96-well plate, 5×10^5 CFU/mL, 37° C., judged after 8 h
Outline: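 Log-phase bacteria (OD600 ~0.5) resuspended in LB at 5×10^5 CFU/mL, exposed to recombinant protein at 50, 25, 12.5 μg/mL final in triplicate, 37 °C shaking at 175 rpm. OD600 read every 30 min; MIC is lowest concentration showing no growth.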

E. coli BL21 = assay: MIC against Gram-negative bacteria: E. coli BL21; details: for MIC against E. coli BL21 / MIC (μg/mL) E. coli BL21 / MIC: E. coli BL21
Outline: (§1)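 MIC, the lowest recombinant protein concentration giving no bacterial growth, found by two-fold serial dilution of human EGF-domain proteins in triplicate. Inoculum 5×10^5 CFU/mL in LB from cultures at McFarland 0.5; plates incubated at 37° C, 175 rpm shaking.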

Pseudomonas aeruginosa = assay: MIC against Gram-negative bacteria: Pseudomonas aeruginosa
Outline: as §1

Klebsiella pneumonia = assay: MIC against Gram-negative bacteria: Klebsiella pneumonia
Outline: as §1

Enterobacter cloacae = assay: MIC against Gram-negative bacteria: Enterobacter cloacae
Outline: as §1

Aeromonas hydrophila = assay: MIC against Gram-negative bacteria: Aeromonas hydrophila
Outline: as §1

Citrobacter diversus = assay: MIC against Gram-negative bacteria: Citrobacter diversus
Outline: as §1

Moraxella catarrhalis = assay: MIC against Gram-negative bacteria: Moraxella catarrhalis
Outline: as §1

Proteus mirabilis = assay: MIC against Gram-negative bacteria: Proteus mirabilis
Outline: as §1

Proteus vulgaris = assay: MIC against Gram-negative bacteria: Proteus vulgaris
Outline: as §1

Serratia marcescens = assay: MIC against Gram-negative bacteria: Serratia marcescens
Outline: as §1

[1] = 5×10^5 CFU/mL, 10 h cultivation at 37° C.
[2] = Pseudomonas aeruginosa, 5×10^5 CFU/mL, 10 h cultivation at 37° C.
[3] = Klebsiella pneumonia, 5×10^5 CFU/mL, 10 h cultivation at 37° C.
[4] = Enterobacter cloacae, 5×10^5 CFU/mL, 10 h cultivation at 37° C.
[5] = Aeromonas hydrophila, 5×10^5 CFU/mL, 10 h cultivation at 37° C.
[6] = Citrobacter diversus, 5×10^5 CFU/mL, 10 h cultivation at 37° C.
[7] = Moraxella catarrhalis, 5×10^5 CFU/mL, 10 h cultivation at 37° C.
[8] = Proteus mirabilis, 5×10^5 CFU/mL, 10 h cultivation at 37° C.
[9] = Proteus vulgaris, 5×10^5 CFU/mL, 10 h cultivation at 37° C.
[10] = Serratia marcescens, 5×10^5 CFU/mL, 10 h cultivation at 37° C.
[11] = 10 h cultivation at 37° C., 5×10^5 CFU/mL
[12] = P. aeruginosa, 10 h cultivation at 37° C., 5×10^5 CFU/mL
[13] = K. pneumonia, 10 h cultivation at 37° C., 5×10^5 CFU/mL
[14] = E. cloacae, 10 h cultivation at 37° C., 5×10^5 CFU/mL
[15] = A. hydrophila, 10 h cultivation at 37° C., 5×10^5 CFU/mL
[16] = C. diversus, 10 h cultivation at 37° C., 5×10^5 CFU/mL
[17] = M. catarrhalis, 10 h cultivation at 37° C., 5×10^5 CFU/mL
[18] = P. mirabilis, 10 h cultivation at 37° C., 5×10^5 CFU/mL
[19] = P. vulgaris, 10 h cultivation at 37° C., 5×10^5 CFU/mL
[20] = S. marcescens, 10 h cultivation at 37° C., 5×10^5 CFU/mL
[21] = 96-well plate, 5×10^5 CFU/mL, 37° C., 10 h
[22] = Pseudomonas aeruginosa, 96-well plate, 5×10^5 CFU/mL, 37° C., 10 h
[23] = Klebsiella pneumonia, 96-well plate, 5×10^5 CFU/mL, 37° C., 10 h
[24] = Enterobacter cloacae, 96-well plate, 5×10^5 CFU/mL, 37° C., 10 h
[25] = Aeromonas hydrophila, 96-well plate, 5×10^5 CFU/mL, 37° C., 10 h
[26] = Citrobacter diversus, 96-well plate, 5×10^5 CFU/mL, 37° C., 10 h
[27] = Moraxella catarrhalis, 96-well plate, 5×10^5 CFU/mL, 37° C., 10 h
[28] = Proteus mirabilis, 96-well plate, 5×10^5 CFU/mL, 37° C., 10 h
[29] = Proteus vulgaris, 96-well plate, 5×10^5 CFU/mL, 37° C., 10 h
[30] = Serratia marcescens, 96-well plate, 5×10^5 CFU/mL, 37° C., 10 h
[31] = P. aeruginosa, 10 h cultivation at 37° C.
[32] = K. pneumonia, 10 h cultivation at 37° C.
[33] = E. cloacae, 10 h cultivation at 37° C.
[34] = A. hydrophila, 10 h cultivation at 37° C.
[35] = C. diversus, 10 h cultivation at 37° C.
[36] = M. catarrhalis, 10 h cultivation at 37° C.
[37] = P. mirabilis, 10 h cultivation at 37° C.
[38] = P. vulgaris, 10 h cultivation at 37° C.
[39] = S. marcescens, 10 h cultivation at 37° C.

PRT1405 (PTTQCIDPQCGGRGICIMGSCACNSGYKGESCE; listed as Homo sapiens)
MIC (E. coli DH5α): 12.5 µg/mL
MIC against E. coli BL21 (E. coli BL21; [1]): 12.5 µg/mL
MIC against P. aeruginosa (Pseudomonas aeruginosa; [2]): 12.5 µg/mL
MIC against K. pneumonia (Klebsiella pneumonia; [3]): 12.5 µg/mL
MIC against E. cloacae (Enterobacter cloacae; [4]): 12.5 µg/mL
MIC against A. hydrophila (Aeromonas hydrophila; [5]): 12.5 µg/mL
MIC against C. diversus (Citrobacter diversus; [6]): 12.5 µg/mL
MIC against M. catarrhalis (Moraxella catarrhalis; [7]): 12.5 µg/mL
MIC against P. mirabilis (Proteus mirabilis; [8]): 12.5 µg/mL
MIC against P. vulgaris (Proteus vulgaris; [9]): 50 µg/mL
MIC against S. marcescens (Serratia marcescens; [10]): 12.5 µg/mL

PRT763 (ALDRCALNTHGCEHICVNDRSGSYHCECYEGYTLNEDRKTCS; listed as Homo sapiens)
MIC (E. coli DH5α): 25 µg/mL
MIC (μg/mL) E. coli BL21 (E. coli BL21; [11]): 50 µg/mL
MIC (μg/mL) P. aeruginosa (Pseudomonas aeruginosa; [12]): 12.5 µg/mL
MIC (μg/mL) K. pneumonia (Klebsiella pneumonia; [13]): 25 µg/mL
MIC (μg/mL) E. cloacae (Enterobacter cloacae; [14]): 12.5 µg/mL
MIC (μg/mL) A. hydrophila (Aeromonas hydrophila; [15]): 25 µg/mL
MIC (μg/mL) C. diversus (Citrobacter diversus; [16]): 12.5 µg/mL
MIC (μg/mL) M. catarrhalis (Moraxella catarrhalis; [17]): 12.5 µg/mL
MIC (μg/mL) P. mirabilis (Proteus mirabilis; [18]): 12.5 µg/mL
MIC (μg/mL) P. vulgaris (Proteus vulgaris; [19]): 50 µg/mL
MIC (μg/mL) S. marcescens (Serratia marcescens; [20]): 25 µg/mL

PRT628 (CTCNQHGTCDPNTGICVCSHHTEGPSCERCLPGFYGNPFAGQADDCQP; listed as Homo sapiens)
MIC (E. coli DH5α): 12.5 µg/mL
MIC E. coli BL21 (E. coli BL21; [21]): 12.5 µg/mL
MIC P. aeruginosa (Pseudomonas aeruginosa; [21]): 25 µg/mL
MIC K. pneumonia (Klebsiella pneumonia; [21]): 12.5 µg/mL
MIC E. cloacae (Enterobacter cloacae; [21]): 25 µg/mL
MIC A. hydrophila (Aeromonas hydrophila; [21]): 12.5 µg/mL
MIC C. diversus (Citrobacter diversus; [21]): 25 µg/mL
MIC M. catarrhalis (Moraxella catarrhalis; [21]): 12.5 µg/mL
MIC P. mirabilis (Proteus mirabilis; [21]): 25 µg/mL
MIC P. vulgaris (Proteus vulgaris; [21]): 12.5 µg/mL
MIC S. marcescens (Serratia marcescens; [21]): 25 µg/mL

PRT815 (YGPSCQTRCSCANDGHCHPATGHCSCAPGWTGFSCQ; listed as Homo sapiens)
MIC (E. coli DH5α): 25 µg/mL
MIC (μg/mL) E. coli BL21 (E. coli BL21; [11]): 12.5 µg/mL
MIC (μg/mL) P. aeruginosa (Pseudomonas aeruginosa; [12]): 12.5 µg/mL
MIC (μg/mL) K. pneumonia (Klebsiella pneumonia; [13]): 12.5 µg/mL
MIC (μg/mL) E. cloacae (Enterobacter cloacae; [14]): 25 µg/mL
MIC (μg/mL) A. hydrophila (Aeromonas hydrophila; [15]): 12.5 µg/mL
MIC (μg/mL) C. diversus (Citrobacter diversus; [16]): 25 µg/mL
MIC (μg/mL) M. catarrhalis (Moraxella catarrhalis; [17]): 50 µg/mL
MIC (μg/mL) P. mirabilis (Proteus mirabilis; [18]): 25 µg/mL
MIC (μg/mL) P. vulgaris (Proteus vulgaris; [19]): 12.5 µg/mL
MIC (μg/mL) S. marcescens (Serratia marcescens; [20]): 25 µg/mL

PRT1284 (LVDLCSPDLNPCQHEAQCVGTPDGPRCECMPGYAGDNCS; listed as Homo sapiens)
MIC (E. coli DH5α): 25 µg/mL
MIC against E. coli BL21 (E. coli BL21; [21]): 50 µg/mL
MIC against P. aeruginosa (Pseudomonas aeruginosa; [22]): 25 µg/mL
MIC against K. pneumonia (Klebsiella pneumonia; [23]): 12.5 µg/mL
MIC against E. cloacae (Enterobacter cloacae; [24]): 25 µg/mL
MIC against A. hydrophila (Aeromonas hydrophila; [25]): 12.5 µg/mL
MIC against C. diversus (Citrobacter diversus; [26]): 12.5 µg/mL
MIC against M. catarrhalis (Moraxella catarrhalis; [27]): 50 µg/mL
MIC against P. mirabilis (Proteus mirabilis; [28]): 12.5 µg/mL
MIC against P. vulgaris (Proteus vulgaris; [29]): 25 µg/mL
MIC against S. marcescens (Serratia marcescens; [30]): 12.5 µg/mL

PRT1002 (FPDPCQNAQLCQNGGSCQALLPAPLGLPSSPSPLTPSFLCTCLPGFTGERCQ; listed as Homo sapiens)
MIC (E. coli DH5α): 25 µg/mL
MIC (E. coli BL21; 10 h cultivation at 37° C.): 12.5 µg/mL
MIC (Pseudomonas aeruginosa; [31]): 25 µg/mL
MIC (Klebsiella pneumonia; [32]): 50 µg/mL
MIC (Enterobacter cloacae; [33]): 12.5 µg/mL
MIC (Aeromonas hydrophila; [34]): 50 µg/mL
MIC (Citrobacter diversus; [35]): 25 µg/mL
MIC (Moraxella catarrhalis; [36]): 12.5 µg/mL
MIC (Proteus mirabilis; [37]): 25 µg/mL
MIC (Proteus vulgaris; [38]): 50 µg/mL
MIC (Serratia marcescens; [39]): 12.5 µg/mL

PRT95 (DINECETGQHNCVPNSVCINTRGSFQCGPCQPGFVGDQASGCQ; listed as Homo sapiens)
MIC (E. coli DH5α): 25 µg/mL
MIC (μg/mL) E. coli BL21 (E. coli BL21; [21]): 12.5 µg/mL
MIC (μg/mL) P. aeruginosa (Pseudomonas aeruginosa; [22]): 50 µg/mL
MIC (μg/mL) K. pneumonia (Klebsiella pneumonia; [23]): 12.5 µg/mL
MIC (μg/mL) E. cloacae (Enterobacter cloacae; [24]): 50 µg/mL
MIC (μg/mL) A. hydrophila (Aeromonas hydrophila; [25]): 12.5 µg/mL
MIC (μg/mL) C. diversus (Citrobacter diversus; [26]): 50 µg/mL
MIC (μg/mL) M. catarrhalis (Moraxella catarrhalis; [27]): 12.5 µg/mL
MIC (μg/mL) P. mirabilis (Proteus mirabilis; [28]): 25 µg/mL
MIC (μg/mL) P. vulgaris (Proteus vulgaris; [29]): 50 µg/mL
MIC (μg/mL) S. marcescens (Serratia marcescens; [30]): 25 µg/mL

PRT1421 (ATQSCNDLCEHFCVPNPDQPGSYSCMCETGYRLAADQHRCE; listed as Homo sapiens)
MIC (E. coli DH5α): 12.5 µg/mL
MIC against E. coli BL21 (E. coli BL21; [1]): 50 µg/mL
MIC against P. aeruginosa (Pseudomonas aeruginosa; [2]): 12.5 µg/mL
MIC against K. pneumonia (Klebsiella pneumonia; [3]): 50 µg/mL
MIC against E. cloacae (Enterobacter cloacae; [4]): 12.5 µg/mL
MIC against A. hydrophila (Aeromonas hydrophila; [5]): 50 µg/mL
MIC against C. diversus (Citrobacter diversus; [6]): 25 µg/mL
MIC against M. catarrhalis (Moraxella catarrhalis; [7]): 12.5 µg/mL
MIC against P. mirabilis (Proteus mirabilis; [8]): 25 µg/mL
MIC against P. vulgaris (Proteus vulgaris; [9]): 12.5 µg/mL
MIC against S. marcescens (Serratia marcescens; [10]): 25 µg/mL

PRT989 (NIDDCATAVCFHGATCHDRVASFYCACPMGKTGLLCH; listed as Homo sapiens)
MIC (E. coli DH5α): 50 µg/mL
MIC (E. coli BL21; 10 h cultivation at 37° C.): 12.5 µg/mL
MIC (Pseudomonas aeruginosa; [31]): 50 µg/mL
MIC (Klebsiella pneumonia; [32]): 12.5 µg/mL
MIC (Enterobacter cloacae; [33]): 12.5 µg/mL
MIC (Aeromonas hydrophila; [34]): 12.5 µg/mL
MIC (Citrobacter diversus; [35]): 100 µg/mL
MIC (Moraxella catarrhalis; [36]): 100 µg/mL
MIC (Proteus mirabilis; [37]): 12.5 µg/mL
MIC (Proteus vulgaris; [38]): 12.5 µg/mL
MIC (Serratia marcescens; [39]): 25 µg/mL

PRT1410 (IEGCPGLCNSNGRCTLDQNGWHCVCQPGWRGAGCD; listed as Homo sapiens)
MIC (E. coli DH5α): 25 µg/mL
MIC against E. coli BL21 (E. coli BL21; [1]): 12.5 µg/mL
MIC against P. aeruginosa (Pseudomonas aeruginosa; [2]): 25 µg/mL
MIC against K. pneumonia (Klebsiella pneumonia; [3]): 50 µg/mL
MIC against E. cloacae (Enterobacter cloacae; [4]): 25 µg/mL
MIC against A. hydrophila (Aeromonas hydrophila; [5]): 12.5 µg/mL
MIC against C. diversus (Citrobacter diversus; [6]): 50 µg/mL
MIC against M. catarrhalis (Moraxella catarrhalis; [7]): 100 µg/mL
MIC against P. mirabilis (Proteus mirabilis; [8]): 50 µg/mL
MIC against P. vulgaris (Proteus vulgaris; [9]): 12.5 µg/mL
MIC against S. marcescens (Serratia marcescens; [10]): 12.5 µg/mL
